We go through 22 molecules from ChEMBL document CHEMBL4261534, “Synthesis, α-glucosidase inhibition and molecular docking studies of novel thiazolidine-2,4-dione or rhodanine derivatives” (Medchemcomm, 2017).

The assay addresses alpha-glucosidase (Saccharomyces cerevisiae). The experiment in a line: Inhibition of alpha-glucosidase (unknown origin) using p-nitrophenyl alpha-D-glucopyranoside as substrate preincubated for 15 mins followed by substrate addition measured after 30 mins by spectrophotometric method.
As a reminder, the IC50 is the midpoint of a concentration-inhibition curve. For `COc1cc(/C=C2\SC(=O)NC2=O)ccc1OCN1C(=O)c2ccccc2C1=O`, the IC50 stood at 35.14 µM.

As to `O=C1NC(=O)/C(=C/c2cc([N+](=O)[O-])ccc2OCN2C(=O)c3ccccc3C2=O)S1`, the IC50 amounted to 50.45 µM.

As for `O=C1NC(=O)/C(=C/c2ccc(OCN3C(=O)c4ccccc4C3=O)c([N+](=O)[O-])c2)S1`, the IC50 was determined as 22.48 µM. This IC50 lies about 2.2-fold lower than the previous one.

Turning to `O=C1NC(=S)S/C1=C\c1cc([N+](=O)[O-])ccc1OCN1C(=O)c2ccccc2C1=O`, the half-inhibitory concentration (IC50) amounted to 35.79 µM.

As for `O=C1NC(=O)/C(=C/c2ccccc2OCN2C(=O)c3ccccc3C2=O)S1`, the concentration for half-maximal inhibition (IC50) is above 100 µM.

Consider `COc1cc(/C=C2\SC(=S)NC2=O)ccc1OCN1C(=O)c2ccccc2C1=O`, for which the IC50 came out at 16.11 µM.

`CCOc1cc(/C=C2\SC(=S)NC2=O)ccc1OCN1C(=O)c2ccccc2C1=O`: the IC50 came out at 7.72 µM.

`COc1cc(/C=C2\SC(=S)NC2=O)cc(OC)c1OCN1C(=O)c2ccccc2C1=O` displayed an IC50 of 39.81 µM.

Regarding `O=C1NC(=O)/C(=C/c2ccc(OCN3C(=O)c4ccccc4C3=O)cc2)S1`, the IC50 was 25.6 µM.

In turn, `O=C1NC(=S)S/C1=C\c1ccccc1OCN1C(=O)c2ccccc2C1=O` displayed a 50% inhibitory concentration (IC50) above 100 µM.

`COc1cc(/C=C2\SC(=O)NC2=O)cc(OC)c1OCN1C(=O)c2ccccc2C1=O` showed a half-inhibitory concentration (IC50) above 100 µM.

`O=C1NC(=S)S/C1=C\c1cc(Cl)ccc1OCN1C(=O)c2ccccc2C1=O` yielded an IC50 of 34.82 µM.

Consider `O=C1NC(=O)/C(=C/c2cccc(OCN3C(=O)c4ccccc4C3=O)c2)S1`, for which the half-inhibitory concentration (IC50) is above 100 µM.

The molecule `CCOc1cc(/C=C2\SC(=O)NC2=O)ccc1OCN1C(=O)c2ccccc2C1=O` returned an IC50 of 29.26 µM.

For the molecule `O=C1NC(=O)/C(=C/c2cc(Cl)ccc2OCN2C(=O)c3ccccc3C2=O)S1`, the IC50 is above 100 µM.

`O=C1NC(=S)S/C1=C\c1cccc(OCN2C(=O)c3ccccc3C2=O)c1`: the IC50 was found to be 33.98 µM.

In turn, `O=C1NC(=S)S/C1=C\c1ccc(OCN2C(=O)c3ccccc3C2=O)c(Cl)c1` came in with an IC50 of 5.44 µM.

Take `O=C1NC(=O)/C(=C/c2ccc(OCN3C(=O)c4ccccc4C3=O)c(Cl)c2)S1`: the IC50 turned out to be 20.95 µM.

The molecule `O=C1NC(=S)S/C1=C\c1ccc(OCN2C(=O)c3ccccc3C2=O)cc1` gave an IC50 of 7.91 µM.

Regarding `COc1cccc(/C=C2\SC(=S)NC2=O)c1OCN1C(=O)c2ccccc2C1=O`, the IC50 was above 100 µM.

In turn, `O=C1NC(=S)S/C1=C\c1ccc(OCN2C(=O)c3ccccc3C2=O)c([N+](=O)[O-])c1` showed an IC50 of 6.59 µM. That is a single-digit micromolar value.

The molecule `COc1cccc(/C=C2\SC(=O)NC2=O)c1OCN1C(=O)c2ccccc2C1=O` showed a 50% inhibitory concentration (IC50) above 100 µM.
